# Data from patent publication US12036237B2, “Bromide source for use in treating autism spectral disorder” (INSERM (INSTITUT NATIONAL DE LA SANTE ET DE LA RECHERCHE …, priority 2016, dated 2024).
# Entries after “also recorded” stand apart in the source; their conditions may differ.
# Experiments:
# [1] = tested on: Oprm1−/− mice; experiment: Motor stereotypies scoring
# [2] = literature statement (Romermann et al, 2017); cited from earlier work
# [3] = tested on: Oprm1−/− mice; experiment: Locomotor activity by videotracking; assay type: in vivo; conditions: Example 2; for locomotor activity after bromide administration: 250 and 500 mg/kg
# Description: (§1) Sodium bromide (anhydrous, Sigma-Aldrich, Saint-Quentin, France) dissolved in saline solution (NaCl, 0.9%) at the dose of 250 or 500 mg/kg, or vehicle (NaCl, 0.9%), was administered intraperitoneally once a day for 19 days in a volume of 20 ml/kg. On testing days, bromide was administered 30 min before behavioural assays. Bumetanide (Tocris, provided by Bio-Techne, Lille, France) dissolved in NaCl 0.9% at the dose of 0.5 mg/kg (Deidda et al, 2015) or vehicle was administered intraperitoneally once a day for 19 days in a volume of 20 ml/kg.
# Locomotor activity. Locomotor activity was assessed in clear cages (21×11×17 cm) placed over a white Plexiglas infrared-lit platform. Light intensity of the room was set at 15 lx. The trajectories of the mice were analyzed and recorded via an automated tracking system equipped with an infrared-sensitive camera (Videotrack; View Point, Lyon, France). To focus on forward activity, only movements which speed was over 6 cm/s were taken into account for the measure of locomotor activity. Behavioral testing started when the animals were placed in the activity boxes for a 30 min-habituation period. They were then injected with either vehicle or sodium bromide (250 or 500 mg/kg) and locomotor activity was monitored for further 90 min.
# [4] = tested on: Fmr1−/− mice; experiment: Y-maze exploration; assay type: in vivo; conditions: bromide 250 mg/kg i.p. daily
# Description: as §1
# (§2) Behavioural assays started after a week of daily bromide (or bumetanide) treatment.
# [5] = tested on: Shank3B−/− mice; experiment: Y-maze exploration; assay type: in vivo; conditions: bromide 250 mg/kg i.p. daily
# Description: as §1, §2
# [6] = tested on: Fmr1−/− mice; experiment: Motor stereotypies scoring; assay type: in vivo; conditions: bromide 250 mg/kg i.p. daily
# Description: as §1, §2
# [7] = tested on: Shank3B−/− mice; experiment: Motor stereotypies scoring; assay type: in vivo; conditions: bromide 250 mg/kg i.p. daily
# Description: as §1, §2
# [8] = tested on: Oprm1−/− mice; experiment: Three-chamber social novelty preference test; conditions: bromide 125, 250, 500 mg/kg i.p. daily vs saline
# [9] = tested on: Fmr1−/− mice; experiment: Novelty-suppressed feeding test; assay type: in vivo; conditions: bromide 250 mg/kg i.p. daily
# Description: as §1, §2
# (§3) Novelty-suppressed feeding. […] Immediately after an eating event, the mouse was transferred back to the home cage (free from cage-mates) and allowed to feed on lab chow for 5 min.
# [10] = tested on: Shank3B−/− mice; experiment: Novelty-suppressed feeding test; assay type: in vivo; conditions: bromide 250 mg/kg i.p. daily
# Description: as §1, §2, §3
# [11] = Example 2, bromide 250, 500 mg/kg
# [12] = Oprm1−/− mice, bromide 125, 250, 500 mg/kg i.p. daily
# [13] = all animals, bromide 125, 250, 500 mg/kg i.p. daily
smiles,measurement,setting,value
"[Br-].[Na+] [bromide, Sodium bromide]",motor stereotypies (overall),"[1]; Example 2, Oprm1−/− mice, bromide 250, 500 mg/kg",little effect
same,time spent burying,"[1]; Example 2, all treated animals, bromide 250, 500 mg/kg",decreased
same,circling behavior,[1]; [11],little effect
same,number of burying episodes and their duration,[1]; [11],did not modify
same,circling behavior,"[1]; Example 2, bromide 250, 500 mg/kg, listed as Bromide",no effect
same,number of rearing episodes,"[1]; Example 2, males since 250 mg/kg, females at 500 mg/kg only",increased the number of rearing episodes in wild-type and not knockout animals
same,number of grooming episodes,"[1]; Oprm1−/− and wild-type, bromide 125, 250, 500 mg/kg i.p. daily","dose-dependently increased the number of grooming episodes, but in wild-type animals only; also recorded: increased grooming occurrence in wild-type animals only"
same,"motor stereotypies (shakes and circling), overall",[1]; [12],efficiently reduce; also recorded: demonstrated efficacy in reducing; also recorded: significant decrease
same,number of circling episodes,[1]; [12],normalized
same,number of circling episodes,"[1]; Oprm1−/− mice, bromide 125, 250, 500 mg/kg i.p. daily, listed as Bromide",decreased
same,number of shakes,"[1]; Oprm1−/− mutant mice, bromide 125, 250, 500 mg/kg i.p. daily",reduced their occurrence
same,number of shakes,"[1]; Oprm1−/− mutant mice, bromide 125, 250, 500 mg/kg i.p. daily, listed as Bromide",decreased
same,number of rearing episodes,"[1]; all animals (Oprm1−/− and wild-type), bromide 125, 250, 500 mg/kg i.p. daily",increased
same,number of burying episodes,[1]; [13],dose-dependently reduced; also recorded: dose dependently reduced
same,time spent burying,[1]; [13],dose-dependently reduced
same,number of shakes,"[1]; wild-type (Oprm1+/+) mice, bromide 125, 250, 500 mg/kg i.p. daily",dose-dependently increased
same,number of shakes,"[1]; wild-type (Oprm1+/+) mice, bromide 125, 250, 500 mg/kg i.p. daily, listed as Bromide",increased
same,ability to cross the blood brain barrier,[2],easily cross this barrier
same,locomotor activity during the habituation run,"[3]; chronically treated animals, males since 250 mg/kg, females only at 500 mg/kg",higher
same,locomotor activity after bromide administration,[3]; controls (wild-type),not modified in controls at 250 mg/kg and was increased at 500 mg/kg; also recorded: at the dose of 500 mg/kg only
same,locomotor activity (overall),"[3]; mice, bromide 250 mg/kg, males more sensitive",increases
same,locomotor activity after bromide administration,[3]; mutant (KO) animals,"increased in mutant animals at the dose of 250 mg/kg, but not at 500 mg/kg; also recorded: increased activity"
same,perseverative same arm returns (cognitive stereotypies),[4],efficiently reduced; also recorded: relieves; also recorded: suppressed
same,rate of alternate arm returns,[5]; Shank3B line,not modified
same,perseverative same arm returns (cognitive stereotypies),[5]; Shank3B−/− mice,normalized; also recorded: relieves; also recorded: suppressed
same,rate of spontaneous alternation,[5]; Shank3B−/− mice,rescued
same,"number of rearing, grooming or burying episodes",[6]; Fmr1 knockout and wild-type,no effect
same,motor stereotypies (overall),[6]; Fmr1−/− mice,efficiently reduced; also recorded: relieves
same,number of circling episodes,[6]; Fmr1−/− mice,normalized; also recorded: reduced
same,number of shakes,[6]; Fmr1−/− mice,normalized; also recorded: reduced
same,duration of burying events,[6]; all animals (Fmr1 line),reduced
same,time spent burying,[6]; all animals (Fmr1 line),reduced
same,number of rearing episodes,[7]; Shank3B−/− and wild-type,no effect
same,motor stereotypies (overall),[7]; Shank3B−/− mice,efficiently reduced; also recorded: relieves
same,number of circling episodes,[7]; Shank3B−/− mice,normalized; also recorded: reduced
same,number of grooming episodes,[7]; Shank3B−/− mice,normalized
same,number of shakes,[7]; Shank3B−/− mice,normalized; also recorded: reduced
same,difference (mouse over toy) in nose (close) contact duration,[8],restored difference
same,difference (mouse over toy) in number of nose (close) contacts,[8],restored difference
same,difference (mouse over toy) in time spent in nose (close) contact,[8],restored difference
same,difference (preference for the mouse over the toy) in time spent in compartments,[8],restored difference
same,social preference (overall),[8],restored social preference; also recorded: increased social preference; also recorded: restored preference for the living mouse over the toy
same,food intake back in the home cage,[9]; Fmr1 line,did not modify
same,exacerbated anxiety (overall),[9]; Fmr1−/− mice,can reduce
same,feeding latency,[9]; Fmr1−/− mice,reduced the feeding latency to wild-type level; also recorded: decreased
same,food intake back in the home cage,[10]; Shank3B mutants,did not rescued
same,exacerbated anxiety (overall),[10]; Shank3B−/− mice,can reduce
same,feeding latency,[10]; Shank3B−/− mice,normalized
